Assay results from PMC12525168, “Targeting carA Using Optimized Antisense Peptide Nucleic Acid–Cell-Penetrating Peptide Conjugates in Acinetobacter baumannii: A Novel Antibacterial Approach” (International Journal of Molecular Sciences, 2025).

What was measured:
A. baumannii ATCC 17978 [1] = assay: MIC by broth microdilution (CLSI); format: cell-based, Acinetobacter baumannii; conditions: CAMHB with TES buffer, 37 °C, 18–20 h, at least two independent experiments in duplicate
Excerpt: CPP–PNA conjugates were synthesized by HLB […] Co., LTD. The binding sites within A. baumannii ATCC 17978 were predicted and analyzed using Geneious Prime (version 1 February 2025), enabling precise identification of target regions for subsequent antisense PNA design. Specifically, α-PNA modifications introduced arginine, while γ-PNA modifications incorporated guanidino-lysine. The diverse CPP–PNA and α- and γ-modified PNA oligomers were generated via solid-phase peptide synthesis using benzothiazole sulfonyl and standard fluorenylmethyloxycarbonyl chemistry procedures on an automatic synthesizer (HLB-[…]). The synthesized PNA oligomers were cleaved from the solid support resin using a mixed solution containing trifluoroacetic acid. The PNA mixture separated from the solid support was purified using reverse-phase high-performance liquid chromatography, and the purity and molecular weight were determined and confirmed using high-performance liquid chromatography and matrix-assisted laser desorption/ionization time-of-flight mass spectrometry (Figures S1 and S2). The MIC of each CPP–PNA conjugate was determined using the broth microdilution method in accordance with the Clinical and Laboratory Standards Institute guidelines. A. baumannii ATCC 17978 was used as the test strain. The CPP–PNA conjugates were tested at concentrations of […], 3.125, 6.25, 12.5, 25, and 50 µM in 100 µL of cation-adjusted Mueller–Hinton broth with N-Tris (hydroxymethyl) methyl-2-aminoethanesulfonic acid buffer (CAMHB; T3462; Thermo Fisher Scientific, Waltham, MA, USA). The microdilution plates were incubated at 37 °C for 18–20 h. A minimum of two independent experiments, each performed in duplicate, were conducted to ensure reproducibility.

A. baumannii ATCC 17978 [2] = assay: Bactericidal test: colony count after treatment with 50 µM CPP–PNA; format: cell-based, Acinetobacter baumannii; conditions: for Bactericidal activity in MBC assay (in words) / Average CFU: 50 µM CPP–PNA; for Average CFU: mean of two plates, plated 24 h; for Average CFU / MBC (CFU) in 50 µM CPP–PNA: 4 h at 37 °C; for MBC (CFU) in 50 µM CPP–PNA: 1 × 10^7 CFU/mL inoculum, 50 µL spread on Muller–Hinton agar, 24 h at 37 °C
Excerpt: Artificially synthesized CPP–PNA (carA, […]) conjugates were used to silence carA. Briefly, carA-specific oligonucleotides were identified from the genomic sequence of A. baumannii ATCC 17978 (CP049363.1). The CPP–PNA conjugates, namely KFFK (FFK)2–PNA, KKFK (FFK)2–PNA, and KKKK (FFK)2–PNA, were synthesized by HLB […] Co., LTD. (Daejeon, Republic of Korea). These conjugates were engineered to specifically bind to the translation initiation region of carA, which includes the TTG start codon and the Shine-Dalgarno sequence (TTTGGT) crucial to ribosomal interaction.
To prepare bacterial suspensions, cultures of A. baumannii ATCC 17978 were grown until the OD600 value reached 0.8. The CPP–PNA conjugates were prepared to achieve concentrations of 50 and 0 µM in a total volume of 100 µL per well in 96-well plates. Subsequently, 10 µL of the adjusted bacterial suspension was inoculated into each well (1 × 10^7 CFU/mL). The plates were then incubated at 37 °C for 4 h. Subsequently, 50 µL of each CPP–PNA conjugate-treated bacterial suspension was spread on Muller–Hinton agar plates, with each condition distributed across two plates. The plates were subsequently incubated at 37 °C for 24 h to enable bacterial growth and colony formation.

Row | Substance | MIC (A. baumannii ATCC 17978 [1]) | Bactericidal activity in MBC assay (in words) (A. baumannii ATCC 17978 [2]) | Average CFU (A. baumannii ATCC 17978 [2]) | MBC (CFU) in 50 µM CPP–PNA (A. baumannii ATCC 17978 [2]; plate 1 of two) | MBC (CFU) in 50 µM CPP–PNA (A. baumannii ATCC 17978 [2]; plate 2 of two)
1 | Control 4 (ftsZ): KFFK(FFK)2 conjugated to PNA GAGGCCATGAC targeting ftsZ [reference compound] | 50 µM |  |  |  | 
2 | KFFK(FFK)2-TTACTGTTTAGAT: KFFK(FFK)2 conjugated to 13-mer PNA targeting carA stop codon (all peptide nucleic acid (PNA); KFFK(FFK)2 cell-penetrating peptide conjugated to the PNA, attachment site not given here) | 50 µM |  |  |  | 
3 | Control 3 (acpP): KFFK(FFK)2 conjugated to PNA TGATTTGCCAC targeting acpP [reference compound] | 25 µM |  |  |  | 
4 | KFFK(FFK)2-TCAAACCAAAGCT: KFFK(FFK)2 cell-penetrating peptide conjugated to unmodified 13-mer antisense PNA TCAAACCAAAGCT targeting carA RBS (all peptide nucleic acid (PNA); KFFK(FFK)2 peptide conjugated) | 25 µM | No A. baumannii colonies were detected | 0 CFU | 0 CFU | 0 CFU
5 | Control 5 (rne): KFFK(FFK)2 conjugated to PNA ACGTTTCATGG targeting rne [reference compound] | 50 µM |  |  |  | 
6 | KKFK(FFK)2-TCAAACCAAAGCT: KKFK(FFK)2 cell-penetrating peptide conjugated to 13-mer antisense PNA TCAAACCAAAGCT targeting carA (all peptide nucleic acid (PNA); KKFK(FFK)2 peptide conjugated) |  |  | 10.5 CFU | 7 CFU | 14 CFU
7 | KFFK(FFK)2-TCAAA*CCA*AAGCT: KFFK(FFK)2 conjugated to γ-modified 13-mer PNA targeting carA RBS (TCAAACCAAAGCT; KFFK(FFK)2 peptide conjugate, γ-modified PNA, chemistry not fully specified) | 25 µM |  |  |  | 
8 | KKKK(FFK)2-TCAAACCAAAGCT: KKKK(FFK)2 cell-penetrating peptide conjugated to 13-mer antisense PNA TCAAACCAAAGCT targeting carA (all peptide nucleic acid (PNA); KKKK(FFK)2 peptide conjugated) |  | no bactericidal activity | TNTC | TNTC | TNTC
9 | KFFK(FFK)2-CGGGGGTGCTCAA: KFFK(FFK)2 conjugated to 13-mer PNA targeting carA start codon (all peptide nucleic acid (PNA); KFFK(FFK)2 cell-penetrating peptide conjugated to the PNA, attachment site not given here) | >50 µM |  |  |  | 
